According to PubChem BioAssay (NCI):
“And” between values parts separate entries of the source, which are not always exact repeats. Equal values may be shown once.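 The compound was tested at five concentrations on cells cultured in 96-well plates, with a 48-hour exposure period. GI50 is the concentration that inhibits growth by half. TGI denotes the concentration required for complete inhibition of growth.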 Where a SMILES comes first, the peptide text is derived from it. [ ]: non-standard residue; d: D form. 2Nal = N[CH](Cc1ccc2ccccc2c1)C(=O)O

Columns and labels:
Test in all cases: DTP human tumour cell line panel, 48 h
MCF7 breast = system: MCF7 breast
MDA-MB-231 breast = system: MDA-MB-231 breast
OVCAR-3 ovarian = system: OVCAR-3 ovarian
ACHN renal = system: ACHN renal
HT29 colon = system: HT29 colon
MALME-3M melanoma = system: MALME-3M melanoma
T-47D breast = system: T-47D breast
HCT-116 colon = system: HCT-116 colon
M14 melanoma = system: M14 melanoma
PC-3 prostate = system: PC-3 prostate

Row | SMILES | GI50 (MCF7 breast) [µg/mL] | TGI (MCF7 breast) | GI50 (MDA-MB-231 breast) [µg/mL] | TGI (MDA-MB-231 breast) | GI50 (OVCAR-3 ovarian) | TGI (OVCAR-3 ovarian) | GI50 (ACHN renal) | TGI (ACHN renal) | GI50 (HT29 colon) | TGI (HT29 colon) | GI50 (MALME-3M melanoma) [µg/mL] | TGI (MALME-3M melanoma) | GI50 (T-47D breast) [µg/mL] | TGI (T-47D breast) | GI50 (HCT-116 colon) | TGI (HCT-116 colon) | GI50 (M14 melanoma) [µg/mL] | TGI (M14 melanoma) | GI50 (PC-3 prostate) [µg/mL] | TGI (PC-3 prostate)
1 | O=C=Nc1ccc(Cc2ccc(N=C=O)cc2)cc1 (tested in a mixture with another compound) | > 25 | > 25 µg/mL | > 25 | > 25 µg/mL | > 25 µg/mL | > 25 µg/mL | > 25 µg/mL | > 25 µg/mL | > 25 µg/mL | > 25 µg/mL | > 25 | > 25 µg/mL | > 25 | > 25 µg/mL | > 25 µg/mL | > 25 µg/mL | > 25 | > 25 µg/mL | > 25 | > 25 µg/mL
2 | O=C1/C(=C\c2ccccc2)c2ccccc2N1Cc1ccccc1 | – | 12.3 µM | – | 13.3 µM | – | 11.9 µM | – | 25.1 µM | – | 14.4 µM | – | 12.8 µM | – | 15.1 µM | – | 12.4 µM | – | 23.9 µM | – | 15.9 µM
3 | COc1ccc(/C=N/NC(=O)O)cc1 | – | > 100 µM | – | > 100 µM | – | > 100 µM | – | > 100 µM | – | > 100 µM | – | > 100 µM | – | > 100 µM | – | > 100 µM | – | > 100 µM | – | > 100 µM
4 | CC(NC(=O)C(N)Cc1ccccc1)C(=O)NC(Cc1ccc(O)cc1)C(=O)NC(Cc1c[nH]c2ccccc12)C(=O)NC(CCCCN)C(=O)NC(C(=O)NC(C)C(=O)NC(Cc1ccc2ccccc2c1)C(N)=O)C(C)C (centres undefined) (H-FAYWKVA[2Nal]-NH2; configuration not given here) | – | > 12.5 µM | – | > 12.5 µM | 18.8 µM | > 12.5 µM and 43.2 µM | 22.7 µM | > 12.5 µM and 52.1 µM | 37.1 µM | > 100 µM | – | > 12.5 µM | – | > 12.5 µM | 33.9 µM | > 100 µM | – | > 12.5 µM | – | > 12.5 µM
